Test results: patent US9242937B2, “Pharmaceutically active disubstituted pyridine derivatives” (Bayer Intellectual Property GmbH, priority 2011, dated 2016)

Tests used:
[1] = test system: LPS-induced TNF alpha release in PBMCs; assay: TNF alpha release assay (LPS-stimulated PBMCs); type: cell-based; conditions: Homo sapiens, PBMC, 1 μg/mL LPS, 6 h, read-out: TNF alpha release (activity range), IC50
Method: Freshly isolated peripheral blood mononuclear cells (PBMCs) were seeded in 96-well cell culture plates with 200,000 cells in 100 μl cell culture medium (DMEM cell culture medium+glutamine from PAN Biotech GmbH, Aidenbach, Germany) supplemented with 10% fetal calf serum (PAA Laboratories GmbH, Pasching, Austria) per well and incubated overnight at 37° C., 5% CO2. To each well, 100 μL cell culture medium with 2× concentrated test compounds diluted from 10 mM DMSO stocks, or 100 μL DMEM with 0.4% DMSO for control wells, was added. The compounds of general formula (I) summarized in Table 6 were used in this assay. After incubation for 1 h at 37° C., 5% CO2, cells were stimulated with 1 μg/mL LPS (Lipopolysaccharides, Sigma, catalog #L4391-1 MG; 1 mg/ml stock solution), or left untreated for negative controls, and plates were incubated for 6 h at 37° C./5% CO2. The cell culture plates were centrifuged at 2000 rpm for 5 minutes, and supernatants were transferred to fresh 96-well polypropylene plates. 25 μL of supernatants were transferred into 96-well-plates of the human TNF alpha-tissue culture kit (Meso Scale Discovery, Gaithersburg, Md., USA), and manufacturer's instructions were followed for analysis of TNF alpha levels. Chemoluminescence was measured in the Mesoscale Sector Imager, and IC50 values were calculated with the software Excel Fit (IDBS, Guildford, UK) from 2-fold dilution series comprising at least 6 concentrations in duplicates.

CDK2/CyclinA = molecular target: T1, CDK2/CyclinA (Homo sapiens, UniProt P24941); assay: LanthaScreen Eu Kinase Binding Assay, CDK2; conditions: tracer 236, read-out: CDK2 (activity range), Kd
T1 construct: purchased Proqinase
Method: (§1) This protocol describes how the LanthaScreen Eu Kinase Binding Assay was performed to determine dissociation constants (Kd) of compounds of general formula (I) and CDK/Cyclin complexes. The principle behind this assay is based upon the binding and displacement of an Alexa Fluor 647-labeled tracer, which binds to the active site of kinases. Binding of the tracer to the kinase is detected using a Eu-labeled antibody. Simultaneous binding of both the tracer and antibody to the kinase gives rise to a FRET-signal. Binding of an inhibitor to the kinase competes for binding with the tracer, resulting in a loss of FRET.
(§2) The compounds of general formula (I) summarized in Table 1 were diluted from a 10 mM DMSO stock solution 1:10 in a total volume of 15 μL DMSO. This compound predilution was then serial diluted 1:3 over 8 steps in DMSO and briefly spun down. Each compound solution was now diluted 1:33.33 in kinase buffer (HEPES: 20 mM, pH: 8.0; MgCl2: 10 mM; DTT: 1 mM; Brij-35: 0.01%), mixed thoroughly and spun down. For every sample, 5 μL of the diluted compound were mixed with 5 μL tracer working solution (e.g. 60 nM tracer 236 in kinase buffer for CDK2/Cyclin A) and 5 μL CDK/Cyclin/Anti-GST-AB-working solution (e.g. 15 nM CDK2/Cyclin A, 1:250 dilution of Anti-GST-AB in kinase buffer) in a well of a small volume 384 well plate (Corning Incorporated, Corning, N.Y., USA; order no. 3673). The tracer concentration was adjusted to its dissociation constant (Kd) for the CDK/Cyclin, which was 30 nM for CDK2/Cyclin A, CDK7/Cyclin H and CDK9/Cyclin T1, 20 nM for CDK8/Cyclin C, and 35 nM for CDK9/Cyclin K. For negative controls, in each well 5 μL of DMSO working solution (3% DMSO diluted in kinase buffer) was mixed with 5 μL Anti-GST-AB working solution (e.g. 1:250 dilution of Anti-GST-AB in kinase buffer for CDK2/Cyclin A) and 5 μL Tracer working solution (e.g. 60 nM Tracer 236 in kinase buffer for CDK2/Cyclin A). For positive controls, in each well 5 μL of DMSO working solution (3% DMSO diluted in kinase buffer) was mixed with 5 μL CDK/Cyclin/Anti-GST-AB-working solution: (e.g. 15 nM CDK2/Cyclin A, 1:250 dilution of Anti-GST-AB in kinase buffer) and 5 μL Tracer working solution (e.g. 60 nM Tracer 236 in kinase buffer for CDK2/Cyclin A). Positive and negative controls were calculated from at least 8 different sample wells. The 384 well plates were mixed in a Teleshaker plate mixer (Beckman Coulter, Brea, Calif., USA) at 2000 rpm for 40 sec, and incubated for 1 h at room temperature before reading. The FRET signal was measured at 340 nm excitation, 665 nm and 615 nm emission (for the kinase tracer and LanthaScreen Eu-AB, respectively) with an Envision spectrophotometer (Perkin Elmer, Waltham, Mass., USA) with 50 μs delay and 300 μs integration time. Kd values were determined from the sigmoidal dose response curves with the software Quattro Workflow (Quattro GmbH, Munich, Germany).

MDAMB468 cells = assay: Cell viability assay, MDAMB468 cells; type: cell-based; conditions: Homo sapiens, MDA-MB-468; 72 h, Cell Titer Glo; read-out: Cell Viability - MDAMB468 cells (activity range), IC50
Method: Hela- or MDAMB468-Cells were maintained in RPMI 1640 or McCoy's 5A cell culture medium+glutamine (PAN Biotech GmbH, Aidenbach, Germany; order no. P04-22100; P04-05500) supplemented with 10% fetal calf serum “Gold” (PAA Laboratories GmbH, Pasching, Austria; order no. A15-151) and grown at 37° C., 5% CO2. For the cell viability assay, cells were seeded with a density of 400 (Hela cells, DSMZ Braunschweig order no. ACC57) or 800 (MDAMB468 cells, ATCC order no. HTB-132) per well in 25 μL in 384-well plates (Greiner Bio-One, Frickenhausen, Germany; order no. 781080). After overnight incubation at 37° C./5% CO2, 25 nL or 75 nL compound were added to each sample well by using BIOMEK FXP Laboratory Automation Workstation (Beckman Coulter, USA). Wells with cells and 0.1% or 0.3% DMSO in culture medium were used as positive controls, wells with cells and 10 μM staurosporine in culture medium were used as negative controls. The cells were incubated with the compounds for 72 h at 37° C./5% CO2. For measurement of cell viability 25 μL Cell Titer Glo reagent (Promega, Madison, USA; order no. G7573), 1:2 diluted with cell culture medium, was added to each well. The 384 well-plates were placed for 2 min on a orbital microplate shaker and incubated for further 10 min at room temperature to stabilize the luminescence signal. Luminescence was measured by Envision Plate Reader (Perkin Elmer, USA). IC50 values were calculated with the software Excel Fit (IDBS, Guildford, UK) from 3-fold dilution series comprising at least 8 concentrations in duplicates.

CDK9/Cyclin K = molecular target: T2, CDK9/Cyclin K (Homo sapiens, UniProt P50750); assay: LanthaScreen Eu Kinase Binding Assay, CDK9/Cyclin K; conditions: tracer 236, read-out: CDK9/Cyclin K (activity range), Kd
T2 construct: purchased Invitrogen
T2 sequence (P50750 whole entry): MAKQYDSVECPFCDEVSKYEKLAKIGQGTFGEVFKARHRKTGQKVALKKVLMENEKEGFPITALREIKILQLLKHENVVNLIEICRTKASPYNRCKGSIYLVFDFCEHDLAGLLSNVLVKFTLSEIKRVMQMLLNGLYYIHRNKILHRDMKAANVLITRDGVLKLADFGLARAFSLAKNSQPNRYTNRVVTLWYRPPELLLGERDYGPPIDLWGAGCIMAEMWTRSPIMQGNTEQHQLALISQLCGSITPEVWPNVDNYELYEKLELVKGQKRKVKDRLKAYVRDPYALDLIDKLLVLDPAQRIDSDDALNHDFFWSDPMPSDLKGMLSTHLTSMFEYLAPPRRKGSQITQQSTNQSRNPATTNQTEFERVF
T2 sequence (O75909 1-357 isoform O75909-1 partner): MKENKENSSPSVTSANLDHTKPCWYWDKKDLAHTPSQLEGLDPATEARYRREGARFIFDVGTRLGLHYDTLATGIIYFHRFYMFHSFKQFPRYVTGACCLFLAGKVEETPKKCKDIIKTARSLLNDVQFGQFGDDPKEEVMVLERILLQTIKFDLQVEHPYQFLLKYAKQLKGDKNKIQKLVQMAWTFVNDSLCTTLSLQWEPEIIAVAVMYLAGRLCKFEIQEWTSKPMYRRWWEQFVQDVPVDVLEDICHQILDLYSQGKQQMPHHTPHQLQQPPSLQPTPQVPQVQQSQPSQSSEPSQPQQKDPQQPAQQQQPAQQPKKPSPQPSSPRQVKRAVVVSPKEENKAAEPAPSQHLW
Method: as §1, §2

Kd (CDK2/CyclinA) [µM]	IC50 (MDAMB468 cells) [µM]	Kd (CDK9/Cyclin K) [µM]	SMILES	IC50 [1] [µM]
0.1 to 1	1 to 10	< 0.1	COc1cc(F)ccc1-c1ccnc(Nc2cccc(CS(N)(=O)=O)c2)c1 [Compound G1, [3-((4-(4-Fluoro-2-methoxyphenyl)pyridin-2-yl)amino)phenyl]-methanesulfonamide]	0.1 to 1
	> 10	0.1 to 1	COc1ccccc1-c1ccnc(Nc2cccc([N+](=O)[O-])c2)c1 [Compound C1, 4-(2-Methoxyphenyl)-N-(3-nitrophenyl)pyridin-2-amine]	1 to 10
0.1 to 1	> 10		CCCNS(=O)(=O)Cc1cccc(Nc2cc(-c3ccc(F)cc3OC)ccn2)c1 [Compound K1, 1-[3-((4-(4-Fluoro-2-methoxyphenyl)pyridin-2-yl)amino)phenyl]-N-propylmethanesulfonamide]	
< 0.1	1 to 10	< 0.1	COc1ccccc1-c1ccnc(Nc2ccc(S(N)(=O)=O)cc2)c1 [Compound E1, 4-[(4-(2-Methoxyphenyl)pyridin-2-yl)amino]benzenesulfonamide]	1 to 10
0.1 to 1	1 to 10	< 0.1	COc1ccccc1-c1ccnc(Nc2cccc(S(C)(=O)=O)c2)c1 [Compound F1, 4-(2-Methoxyphenyl)-N-(3-(methylsulfonyl)phenyl)pyridin-2-amine]	1 to 10
< 0.1	1 to 10		COc1cc(F)ccc1-c1ccnc(Nc2cccc(NS(C)(=O)=O)c2)c1 [Compound J1, N-[3-((4-(4-Fluoro-2-methoxyphenyl)pyridin-2-yl)amino)phenyl]-methanesulfonamide]	
0.1 to 1	1 to 10		COc1cc(F)ccc1-c1ccnc(Nc2cccc(NC(C)=O)c2)c1 [Compound J2, N-[3-((4-(4-Fluoro-2-methoxyphenyl)pyridin-2-yl)amino)phenyl]-acetamide]	
	> 10		COc1ccccc1-c1ccnc(Nc2ccccc2)c1 [Compound B1, 4-(2-Methoxyphenyl)-N-phenylpyridin-2-amine]	> 10
< 0.1	0.1 to 1	< 0.1	COc1ccccc1-c1ccnc(Nc2cccc(S(N)(=O)=O)c2)c1 [Compound D1, 3-[(4-(2-Methoxyphenyl)pyridin-2-yl)amino]benzenesulfonamide]	0.1 to 1
0.1 to 1	1 to 10		COc1cc(F)ccc1-c1ccnc(Nc2cccc(CS(=O)(=O)N(C)C)c2)c1 [Compound G3, 1-[3-((4-(4-Fluoro-2-methoxyphenyl)pyridin-2-yl)amino)phenyl]-N,N-dimethylmethanesulfonamide]	
